Where two headings read alike, the source gives them in different places.
Experiments:
[1] = tested on: H3K27 methylation in G401 cell; assay: ELISA (H3K27 methylation) assay in G401 cells; format: cell-based, human
Summary of the method: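 G401 cells treated 48 h with 3-fold dilutions (8 or 12 points, top 20 μM). Acid-extracted histones probed by ELISA for H3K27me3 or H3K27me2 with ECL readout, normalized to total H3. Percent inhibition versus DMSO fitted to dose-response curve for IC50.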

[2] = target: wild type PRC2 (wtPRC2) complex (Homo sapiens, UniProt O75530); assay: EED LC-MS assay (SAH production by PRC2); format: biochemical
Summary of the method: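 Pentameric PRC2 (EZH2, SUZ12, EED, Rbap48, AEBP), 12 nM final, preincubated 20 min with compound and SAM, then 1.5 μM biotinylated H3K27me0 peptide, 1 μM SAM, pH 8.0, 120 min at rt. SAH quantified by LC-MS/MS with d4-SAH; control-normalized activity fitted for IC50.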

EED (1-441)-His protein = target: T1, EED (1-441)-His protein (Homo sapiens, UniProt O75530); assay: EED-H3K27Me3 peptide competition binding assay by AlphaScreen
T1 construct: 30 nM EED (1-441)-His protein
Summary of the method: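 Serially diluted compound (12 points, 3-fold) incubated 20 min with 30 nM EED(1-441)-His and 15 nM biotin-H3K27Me3(19-33) peptide in 25 mM HEPES pH 8, 0.02% Tween-20, 0.5% BSA. Ni-chelate acceptor/streptavidin donor beads (10 μg/mL each) added, 1 h rt dark; 615 nm emission normalized to controls, dose-response fit for IC50.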

[3] = Homo sapiens, G-401, H3K27 methylation ELISA, read-out: (c) IC50 ELISA Qualified
[4] = PRC2 LC-MS assay, read-out: (b) IC50 EED LC-MS Qualified
[5] = EED-H3K27Me3 peptide competition, AlphaScreen, read-out: (a) IC50 EED Alphascreen binding Qualified
[6] = Homo sapiens, G-401, read-out: (c) IC50, ELISA Qualified
[7] = read-out: (b) IC50, EED LC-MS Qualified
[8] = read-out: (a) IC50, EED Alphascreen binding Qualified
[9] = Homo sapiens, G-401, read-out: (c) IC50 ELISA Qualified
[10] = read-out: (b) IC50 EED LC-MS Qualified
[11] = read-out: (a) IC50 EED Alphascreen binding Qualified

T1 sequence (O75530 whole entry): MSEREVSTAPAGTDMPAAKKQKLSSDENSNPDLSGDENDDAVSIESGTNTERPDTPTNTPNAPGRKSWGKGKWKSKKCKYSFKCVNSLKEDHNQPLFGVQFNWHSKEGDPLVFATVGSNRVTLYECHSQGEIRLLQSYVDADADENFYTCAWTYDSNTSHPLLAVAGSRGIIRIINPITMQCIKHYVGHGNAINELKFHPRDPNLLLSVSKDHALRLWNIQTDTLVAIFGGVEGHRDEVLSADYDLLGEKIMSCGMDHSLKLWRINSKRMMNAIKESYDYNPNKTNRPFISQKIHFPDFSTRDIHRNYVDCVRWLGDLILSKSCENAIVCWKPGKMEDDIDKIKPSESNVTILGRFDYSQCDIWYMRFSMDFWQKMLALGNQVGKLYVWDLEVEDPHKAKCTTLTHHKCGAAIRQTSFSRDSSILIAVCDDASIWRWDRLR
Sequence of wild type PRC2 (wtPRC2) complex (O75530 whole entry): as above
Sequence of wild type PRC2 (wtPRC2) complex (Q15910 whole entry partner): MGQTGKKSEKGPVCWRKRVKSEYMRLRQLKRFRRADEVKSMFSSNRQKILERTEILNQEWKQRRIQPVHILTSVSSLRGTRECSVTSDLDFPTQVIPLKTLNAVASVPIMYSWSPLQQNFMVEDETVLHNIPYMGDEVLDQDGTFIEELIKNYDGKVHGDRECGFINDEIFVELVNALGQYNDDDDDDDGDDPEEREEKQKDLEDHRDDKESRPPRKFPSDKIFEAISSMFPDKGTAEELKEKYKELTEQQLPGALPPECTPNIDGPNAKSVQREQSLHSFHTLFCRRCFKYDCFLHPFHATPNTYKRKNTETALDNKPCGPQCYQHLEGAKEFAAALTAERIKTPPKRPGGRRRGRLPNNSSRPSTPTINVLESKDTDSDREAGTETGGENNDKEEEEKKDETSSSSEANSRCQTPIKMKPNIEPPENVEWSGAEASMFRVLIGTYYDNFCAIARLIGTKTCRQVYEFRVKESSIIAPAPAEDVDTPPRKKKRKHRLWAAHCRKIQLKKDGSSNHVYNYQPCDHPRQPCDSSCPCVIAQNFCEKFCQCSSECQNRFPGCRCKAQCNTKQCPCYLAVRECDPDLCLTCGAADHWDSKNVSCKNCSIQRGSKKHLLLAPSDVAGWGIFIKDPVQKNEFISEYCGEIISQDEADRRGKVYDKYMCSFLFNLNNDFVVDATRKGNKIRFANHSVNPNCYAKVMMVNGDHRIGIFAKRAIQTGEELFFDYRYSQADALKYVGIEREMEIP
Sequence of wild type PRC2 (wtPRC2) complex (Q15022 whole entry partner): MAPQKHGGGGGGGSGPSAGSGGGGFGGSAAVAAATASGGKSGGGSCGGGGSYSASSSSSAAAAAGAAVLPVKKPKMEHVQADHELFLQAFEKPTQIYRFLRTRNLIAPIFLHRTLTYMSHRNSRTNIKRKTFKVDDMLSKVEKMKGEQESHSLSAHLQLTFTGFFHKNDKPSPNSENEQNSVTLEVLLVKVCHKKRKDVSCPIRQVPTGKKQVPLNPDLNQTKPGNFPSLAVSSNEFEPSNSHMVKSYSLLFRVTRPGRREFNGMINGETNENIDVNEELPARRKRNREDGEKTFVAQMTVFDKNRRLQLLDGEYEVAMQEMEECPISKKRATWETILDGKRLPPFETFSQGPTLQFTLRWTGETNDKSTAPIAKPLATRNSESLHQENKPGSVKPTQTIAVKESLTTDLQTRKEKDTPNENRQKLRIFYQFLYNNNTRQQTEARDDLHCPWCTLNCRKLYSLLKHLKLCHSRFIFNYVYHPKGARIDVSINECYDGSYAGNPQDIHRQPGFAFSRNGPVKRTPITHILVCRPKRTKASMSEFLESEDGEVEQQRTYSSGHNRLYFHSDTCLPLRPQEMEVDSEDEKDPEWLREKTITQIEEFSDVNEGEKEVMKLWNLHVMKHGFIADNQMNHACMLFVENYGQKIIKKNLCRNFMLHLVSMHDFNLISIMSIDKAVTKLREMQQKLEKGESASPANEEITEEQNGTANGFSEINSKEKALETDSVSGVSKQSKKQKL
Sequence of wild type PRC2 (wtPRC2) complex (Q09028 whole entry partner): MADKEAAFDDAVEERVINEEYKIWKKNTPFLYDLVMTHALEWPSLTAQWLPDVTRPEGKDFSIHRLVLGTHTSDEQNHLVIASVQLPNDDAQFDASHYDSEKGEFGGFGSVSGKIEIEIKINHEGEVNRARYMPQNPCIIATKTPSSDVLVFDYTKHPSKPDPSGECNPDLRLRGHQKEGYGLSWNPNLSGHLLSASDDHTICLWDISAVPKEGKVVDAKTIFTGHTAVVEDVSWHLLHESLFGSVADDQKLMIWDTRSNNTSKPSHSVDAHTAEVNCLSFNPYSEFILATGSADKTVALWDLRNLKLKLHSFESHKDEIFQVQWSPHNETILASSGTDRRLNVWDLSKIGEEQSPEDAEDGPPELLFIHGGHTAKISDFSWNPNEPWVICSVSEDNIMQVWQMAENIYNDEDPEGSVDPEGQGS
Sequence of wild type PRC2 (wtPRC2) complex (Q6ZN18 whole entry partner): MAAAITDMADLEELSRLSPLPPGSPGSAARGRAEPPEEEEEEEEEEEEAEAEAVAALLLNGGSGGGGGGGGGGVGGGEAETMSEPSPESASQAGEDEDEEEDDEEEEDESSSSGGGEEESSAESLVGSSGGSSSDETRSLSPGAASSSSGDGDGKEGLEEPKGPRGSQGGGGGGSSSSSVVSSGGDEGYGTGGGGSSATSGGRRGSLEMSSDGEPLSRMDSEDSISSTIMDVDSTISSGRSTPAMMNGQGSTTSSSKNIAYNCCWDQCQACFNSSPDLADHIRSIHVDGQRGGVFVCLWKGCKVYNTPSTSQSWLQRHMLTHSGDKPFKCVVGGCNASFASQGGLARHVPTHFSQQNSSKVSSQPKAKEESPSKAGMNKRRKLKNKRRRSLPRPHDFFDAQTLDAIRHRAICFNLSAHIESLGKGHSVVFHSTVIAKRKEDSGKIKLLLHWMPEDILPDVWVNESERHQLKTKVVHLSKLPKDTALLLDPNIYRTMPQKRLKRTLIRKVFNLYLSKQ

Row | SMILES | IC50 [1, 3] | IC50 [2, 4] | IC50 (EED (1-441)-His protein; [5]) | IC50 [1, 6] | IC50 [2, 7] | IC50 (EED (1-441)-His protein; [8]) | further results
1 | COc1cccc(F)c1CNc1ccc(-c2nc(C)no2)c2nncn12 [Example 11, N-(2-Fluoro-6-methoxybenzyl)-8-(3-methyl-1,2,4-oxadiazol-5-yl)-[1,2,4]triazolo[4,3-a]pyridin-5-amine] |  |  |  | 40.5 nM | 119 nM | 30.7 nM | 
2 | COc1ccccc1CNc1ccc(-c2ccc(N3CCN(C)CC3C)nc2)c2nncn12 (stereo not drawn) [Example 180, 8-(6-(2,4-dimethylpiperazin-1-yl)pyridin-3-yl)-N-(2-methoxybenzyl)-[1,2,4] triazolo[4,3-a]pyridin-5-amine] | 57.9 nM | 171 nM | 55.7 nM |  |  |  | 
3 | COc1ccccc1CNc1ccc(-c2ccc(S(=O)(=O)N3CCN(C)CC3)cc2)c2nncn12 [Example 18, N-(2-methoxybenzyl)-8-(4-((4-methylpiperazin-1-yl)sulfonyl)phenyl)-[1,2,4] triazolo[4,3-a]pyridin-5-amine] |  |  |  | 114 nM | 930 nM | 81.7 nM | 
4 | COc1cccc(F)c1CNc1ccc(-c2c(C)nn(CC(C)O)c2C)c2nncn12 (stereo not drawn) [Example 274, 1-(4-(5-((2-fluoro-6-methoxybenzyl)amino)-[1,2,4]triazolo[4,3-a]pyridin-8-yl)-3,5-dimethyl-1H-pyrazol-1-yl)propan-2-ol] | 15.4 nM | 25.3 nM | 14.6 nM |  |  |  | 
5 | COc1cc(F)cc(F)c1CNc1ccc(-c2cnc(C)cc2C)c2nncn12 [Example 329, N-(2,4-difluoro-6-methoxybenzyl)-8-(4,6-dimethylpyridin-3-yl)-[1,2,4]triazolo [4,3-a]pyridin-5-amine] | 48 nM | 1360 nM | 31.1 nM |  |  |  | 
6 | COc1cccc(F)c1CNc1ccc(-n2cncn2)c2nncn12 [Example 358, N-(2-fluoro-6-methoxybenzyl)-8-(1H-1,2,4-triazol-1-yl)-[1,2,4]triazolo[4,3-a] pyridin-5-amine] |  |  |  |  |  |  | IC50 [1, 9]: 19.5 nM; IC50 [2, 10]: 286 nM; IC50 (EED (1-441)-His protein; [11]): 17.1 nM
7 | COc1cccc(F)c1CNc1ccc(-n2cnc(C)c2)c2nncn12 [Example 354, N-(2-fluoro-6-methoxybenzyl)-8-(4-methyl-1H-imidazol-1-yl)-[1,2,4]triazolo [4,3-a]pyridin-5-amine] |  |  |  |  |  |  | IC50 [1, 9]: 21.4 nM; IC50 [2, 10]: 60.6 nM; IC50 (EED (1-441)-His protein; [11]): 26.1 nM
8 | COc1ccccc1CNc1ccc(-c2ccc(CN(C)C)cc2)c2nncn12 [Example 15, 8-(4-((dimethylamino)methyl)phenyl)-N-(2-methoxybenzyl)-[1,2,4] triazolo[4,3-a]pyridin-5-amine] |  |  |  | 17.5 nM | 66.3 nM | 14.9 nM | 
9 | COc1ccccc1CNc1ccc(-c2ccccc2F)c2nncn12 [Example 47, 8-(2-fluorophenyl)-N-(2-methoxybenzyl)-[1,2,4] triazolo[4,3-a]pyridin-5-amine] |  |  |  | 293 nM | 1330 nM | 98.5 nM | 
10 | COc1ccccc1CNc1ccc(-c2ccc([S+](C)[O-])cc2)c2nncn12 (stereo not drawn) [Example 102, N-(2-methoxybenzyl)-8-(4-(methylsulfinyl)phenyl)-[1,2,4]triazolo[4,3-a]pyridin-5-amine] |  |  |  | 68.9 nM | 1460 nM | 61.9 nM | 
11 | COc1ncc(-c2ccc(NCc3c(F)cc(F)cc3OC)n3cnnc23)c(C)n1 [Example 323, N-(2,4-difluoro-6-methoxybenzyl)-8-(2-methoxy-4-methylpyrimidin-5-yl)-[1,2,4]triazolo[4,3-a]pyridin-5-amine] | 14.3 nM | 31.2 nM | 24.6 nM |  |  |  | 
12 | COc1ccccc1CNc1ccc(-c2cccc(CN(C)C)c2)c2nncn12 [Example 28, 8-(3-((dimethylamino)methyl)phenyl)-N-(2-methoxybenzyl)-[1,2,4] triazolo[4,3-a]pyridin-5-amine] |  |  |  | 54 nM | 291 nM | 37.9 nM | 

Now from value to molecule, other results behind:

Row | IC50 [1, 3] | IC50 [2, 4] | IC50 (EED (1-441)-His protein; [5]) | IC50 [1, 6] | IC50 [2, 7] | IC50 (EED (1-441)-His protein; [8]) | SMILES | further results
13 | 8 nM | 61.3 nM | 17.6 nM |  |  |  | COc1cccc(F)c1CNc1ccc(-c2cncc(C(=O)N(C)C)c2)c2nncn12 [Example 195, 5-(5-((2-fluoro-6-methoxybenzyl)amino)-[1,2,4]triazolo[4,3-a]pyridin-8-yl)-N,N-dimethylnicotinamide] | 
14 | 11.8 nM | 317 nM | 23.7 nM |  |  |  | CCc1ncncc1-c1ccc(NCc2c(F)cccc2OC)n2cnnc12 [Example 280, 8-(4-ethylpyrimidin-5-yl)-N-(2-fluoro-6-methoxybenzyl)-[1,2,4]triazolo[4,3-a]pyridin-5-amine] | 
15 |  |  |  | 5.7 nM | 6.6 nM | 8.6 nM | COc1cccc(F)c1CNc1ccc(-c2cnc(CC(C)C)nc2C)c2nncn12 [Example 4, N-(2-Fluoro-6-methoxybenzyl)-8-(2-isobutyl-4-methylpyrimidin-5-yl)-[1,2,4]triazolo[4,3a]-pyridin-5-amine] | 
16 | 6.4 nM | 27 nM | 11 nM |  |  |  | COc1cccc(F)c1CNc1ccc(-c2ccnc(CF)c2C)c2nncn12 [Example 278, N-(2-fluoro-6-methoxybenzyl)-8-(2-(fluoromethyl)-3-methylpyridin-4-yl)-[1,2,4] triazolo[4,3-a]pyridin-5-amine] | 
17 | 9.4 nM | 116 nM | 23.9 nM |  |  |  | COc1cccc(F)c1CNc1ccc(-c2cccnc2CF)c2nncn12 [Example 294, N-(2-fluoro-6-methoxybenzyl)-8-(2-(fluoromethyl)pyridin-3-yl)-[1,2,4] triazolo[4,3-a]pyridin-5-amine] | 
18 | 58.6 nM | 176 nM | 32.9 nM |  |  |  | COc1cccc(F)c1CNc1ccc(-c2cccnc2OC)c2nncn12 [Example 176, N-(2-fluoro-6-methoxybenzyl)-8-(2-methoxypyridin-3-yl)-[1,2,4]triazolo [4,3-a]pyridin-5-amine] | 
19 | 43.7 nM | 160 nM | 53.1 nM |  |  |  | COc1cccc(F)c1CNc1ccc(-c2ccc(C(C)O)nc2)c2nncn12 (stereo not drawn) [Example 205, 1-(5-(5-((2-fluoro-6-methoxybenzyl)amino)-[1,2,4]triazolo[4,3-a]pyridin-8-yl)pyridin-2-yl)ethanol] | 
20 |  |  |  | 2.4 nM | 62.4 nM | 33.9 nM | COc1cccc(F)c1CNc1ccc(-c2nnc(C)o2)c2nncn12 [Example 9, N-(2-Fluoro-6-methoxybenzyl)-8-(5-methyl-1,3,4-oxadiazol-2-yl)-[1,2,4]triazolo[4,3-a]pyridin-5-amine] | 
21 | 32 nM | 235 nM | 34.5 nM |  |  |  | COc1cccc(F)c1CNc1ccc(-c2cncc(OCCCS(C)(=O)=O)c2)c2nncn12 [Example 198, N-(2-fluoro-6-methoxybenzyl)-8-(5-(3-(methylsulfonyl)propoxy)pyridin-3-yl)-[1,2,4]triazolo [4,3-a]pyridin-5-amine] | 
22 | 13.1 nM | 240 nM | 41.5 nM |  |  |  | COc1ccncc1-c1ccc(NCc2c(F)cccc2OC)n2cnnc12 [Example 190, N-(2-fluoro-6-methoxybenzyl)-8-(4-methoxypyridin-3-yl)-[1,2,4] triazolo[4,3-a]pyridin-5-amine] | 
23 | 62.1 nM | 576 nM | 39.6 nM |  |  |  | CCc1ncccc1-c1ccc(NCc2c(F)cccc2OC)n2cnnc12 [Example 283, 8-(2-ethylpyridin-3-yl)-N-(2-fluoro-6-methoxybenzyl)-[1,2,4]triazolo[4,3-a]pyridin-5-amine] | 
24 | 30 nM | 80.3 nM | 33.2 nM |  |  |  | CCc1cc(S(C)(=O)=O)ccc1-c1ccc(NCc2c(F)cccc2OC)n2cnnc12 [Example 271, 8-(2-ethyl-4-(methylsulfonyl)phenyl)-N-(2-fluoro-6-methoxybenzyl)-[1,2,4]triazolo[4,3-a]pyridin-5-amine] | 
25 |  |  |  | 88.5 nM | 130 nM | 33 nM | CCS(=O)(=O)c1ccc(-c2ccc(NCc3ccccc3OC)n3cnnc23)cc1 [Example 56, 8-(4-(ethylsulfonyl)phenyl)-N-(2-methoxybenzyl)-[1,2,4]triazolo[4,3-a]pyridin-5-amine] | 
26 |  |  |  |  | 198 nM | 61.1 nM | CCc1nc(-c2ccc(NCc3c(F)cccc3OC)n3cnnc23)no1 [Example 10, 8-(5-Ethyl-1,2,4-oxadiazol-3-yl)-N-(2-fluoro-6-methoxybenzy)-[1,2,4]triazolo[4,3-a]pyridin-5-amine] | IC50 ([1]; read-out: (c) IC50, ELISA Qualified): 9.3 nM
27 | 4.4 nM | 7.9 nM | 14.1 nM |  |  |  | COc1cccc(F)c1CNc1ccc(-c2cnc(C(=O)N(C)C)cc2C)c2nncn12 [Example 252, 5-(5-((2-fluoro-6-methoxybenzyl)amino)-[1,2,4]triazolo[4,3-a]pyridin-8-yl)-N,N,4-trimethylpicolinamide] | 
28 | 9.9 nM | 56.2 nM | 8.9 nM |  |  |  | COc1cccc(F)c1CNc1ccc(-c2ccc(N3CCOCC3)nc2C)c2nncn12 [Example 266, N-(2-fluoro-6-methoxybenzyl)-8-(2-methyl-6-morpholinopyridin-3-yl)-[1,2,4]triazolo[4,3-a]pyridin-5-amine] | 
